According to paper PMC6214026, “PSMA-Oriented Target Delivery of Novel Anticancer Prodrugs: Design, Synthesis, and Biological Evaluations of Oligopeptide-Camptothecin Conjugates” (International Journal of Molecular Sciences, 2018):
“And” between values parts separate entries of the source, which are not always exact repeats. Equal entries are not always repeated.

Key:
[1] = system: LNCaP-FGC cells (PSMA-expressing); assay: MTT cytotoxicity assay, LNCaP-FGC; assay type: cell-based, human
Protocol: (§1) The cytotoxicities of PSMA-activated prodrug CPT-HT-J-ZLn and PSMA hydrolysate CPT-D-GLn were evaluated by MTT assays on PSMA-expressing (PSMA^+) cancer cell LNCaP-FGC, non-PSMA-expressing (PSMA^−) cancer cells HepG2, MCF-7, Hela, DU145, and PC-3, and normal cells MDCK, LO2, respectively, using CPT as a positive control.
(§2) The human prostate cancer cell line (LNCaP-FGC), human prostate cancer cell line (PC-3), human prostate cancer cell line (DU-145), human breast cancer cell line (MCF-7), human hepatocellular carcinoma cell line (HepG2), human cervical cancer cell line (Hela), were obtained from the Chinese Academy of Medical Sciences and Peking Union Medical College. The cultures of the cells were maintained as a monolayer in RPMI 1640 or DMEM supplemented with 10% (v/v) heat inactivated fetal bovine serum and 1% (v/v) enicillin/streptomycin (Corning, New York, NY, USA) and incubated at 37 °C in a humidified atmosphere with 5% CO2. The tested compounds were dissolved in DMSO (Sigma, St. Louis, MO, USA) and added at required concentrations to the cell culture.
(§3) The cytotoxicity of all the tested compounds was evaluated in vitro via the MTT method against PSMA-expressing LNCaP-FGC cells and non-PSMA-expressing cells HepG2, Hela, MCF-7, DU145, PC-3 cells using CPT as the positive control. Tumor cells growing in the logarithmic phase were seeded in 96-well plates at a density 3 × 10^3 cells/well and incubated overnight. The following day, cells were then treated with serial dilutions of the tested compounds for 72 h. At the end of this incubation, 20 µL of 5 mg/mL methylthiazol tetrazolium (MTT) was added to each well and incubation proceeded at 37 °C for another 4 h. After the supernatant medium was thrown away, 150 µL dimethylsulphoxide (DMSO) were added to each well and absorbance was measured at 490 nm using a plate reader (BIORAD 550 spectrophotometer, Bio-rad Life Science Development Ltd., Berkeley, CA, USA). Experiments were performed in triplicate and the values were the average of three (n = 3) independent experiments. The concentration of the compound that results in 50% growth inhibition corresponds to the IC50. Tumor cell growth inhibitory rate was calculated using Equation (1): % inhibition = (1 − Sample group OD/Control group OD) × 100%(1)

LNCaP-FGC (PSMA+) cells [2] = assay: In vitro cellular uptake by CLSM, LNCaP-FGC; assay type: cell-based, human; conditions: 10 µM
Description: (§4) In addition to solubilization, the pentapeptide serves to mask the cytotoxicity by preventing nonspecific uptake of drug into cells due to the presence of negative charged amino acids. Upon cleavage of the prodrug by PSMA within the PSMA-expressing cells, the active compound was able to enter cells. […] The nucleus was stained with PI (red) and the fluorescence of CPT was pseudo-colored with blue.
(§5) To evaluate the cellular uptake of the CPT-HT-J-ZL12, LNCaP-FGC (PSMA^+) and HepG2 (PSMA^−) cells were seeded at a density of 1 × 10^4 cells/well in 35 mm glass bottom dishes with 1 mL complete 1640 medium. After incubation for 24 h, the culture medium was replaced with 2 mL of fresh medium containing 10 µM CPT-HT-J-ZL12. Then the cells were incubated further for different incubation time periods (1 and 4 h). Following the removal of the culture media, cells were washed with cold PBS, fixed with 70% ethanol for 30 min at 4 °C. Subsequently, the cells were stained with 5 μg/mL propidium iodide (excitation wavelength was 561 nm) for 5 min to visualize nucleus. The cells were observed by a UltraView RS confocal laser scanning microscopy (PerkinElmer, Waltham, MA, USA).

HepG2 (PSMA−) cells [3] = assay: Apoptosis by Annexin V-FITC/PI flow cytometry, HepG2; conditions: 72 h
Protocol: (§6) The apoptotic effect was determined by counting the apoptosis ratios (including the early and late apoptosis ratios).
(§7) To determine early apoptosis and secondary necrosis, LNCaP-FGC (PSMA^+) and HepG2 (PSMA^−) cells were stained with annexin-V FITC apoptosis detection kit (Beijing BioDee Biotech. Co., Ltd., Beijing, China) as per the manufacturer’s instructions. […] The resulting pellet was mixed with 200 µL binding buffer of the Annexin V-FITC kit, then 5 µL FITC labeled annexin V was added and mixed gently. After incubation at 4 °C for 10 min in the dark, 5 µL PI was added and mixed gently. Then the cells were immediately analyzed with a flow cytometry.

MDCK cells = assay: cells; assay type: cell-based; conditions: MTT, 72 h, normal cells; read-out: IC50 MDCK
Protocol: as §1, §3

LO2 cells = assay: cells; assay type: cell-based; conditions: MTT, 72 h, normal cells; read-out: IC50 LO2
Protocol: as §1, §3

[4] = system: HeLa cells (non-PSMA-expressing); assay: MTT cytotoxicity assay, HeLa; assay type: cell-based, human; conditions: 72 h, mean ± SD, n = 3
Protocol: as §1
The tested compounds were dissolved in DMSO (Sigma, St. Louis, MO, USA) and added at required concentrations to the cell culture.
as §3, with “experiments.” for “experiments. The concentration of the compound that results in 50% growth inhibition corresponds to the IC50. Tumor cell growth inhibitory rate was calculated using Equation (1): % inhibition = (1 − Sample group OD/Control group OD) × 100%(1)”

LNCaP-FGC (PSMA+) cells [5] = assay: Apoptosis by Annexin V-FITC/PI flow cytometry, LNCaP-FGC; conditions: 72 h
Protocol: as §6, §7

LNCaP-FGC (PSMA+) cells [6] = assay: Cell cycle by PI staining flow cytometry, LNCaP-FGC; assay type: cell-based, human; conditions: for percentage of cells in S phase (Dip S): 72 h
Protocol: To further study CPT-HT-J-ZL12-induced growth inhibition, the cell cycle changes were evaluated on LNCaP-FGC (PSMA^+) using flow cytometric methods.
The cell cycle was measured using PI staining and flow cytometry analysis according to the instructions of the manufacturer (Cell Cycle and Apoptosis Analysis Kit, Beyotime Biotechnology, Jiangsu, China). LNCaP-FGC cells (2 × 10^4 cells/mL) in logarithmic growth phase were seeded in 6-well culture plate and incubated for 24 h at 37 °C in incubator with 5% CO2. After exposure to different concentrations of CPT-HT-J-ZL12 (0.63, 1.25, 2.50 μM) for 72 h, cells were harvested and washed twice with cold PBS. Then the cells were centrifuged at 2400× g for 10 min, resuspended in 1 mL 70% cold ethanol and fixed for 12 h at −20 °C. After being washed twice with cold PBS, the cells were incubated with 0.5 mL propidium iodide for 30 min at 37 °C. Detection of the cell cycle was carried out by the Flow Cytometer at 488 nm excitation wavelength

[7] = system: HepG2 cells (non-PSMA-expressing); assay: cells; assay type: cell-based, human; conditions: MTT, 72 h, mean ± SD, n = 3; read-out: IC50 HepG2
Protocol: as §1, §2, §3

[8] = system: MCF-7 cells (non-PSMA-expressing); assay: cells; assay type: cell-based, human; conditions: MTT, 72 h, mean ± SD, n = 3; read-out: IC50 MCF-7
Protocol: as §1, §2, §3

[9] = system: PC-3 cells (non-PSMA-expressing); assay: cells; assay type: cell-based, human; conditions: MTT, 72 h, mean ± SD, n = 3; read-out: IC50 PC-3
Protocol: as §1, §2, §3

[10] = system: DU145 cells (non-PSMA-expressing); assay: cells; assay type: cell-based, human; conditions: MTT, 72 h, mean ± SD, n = 3; read-out: IC50 DU145
Protocol: as §1, §2, §3

HepG2 (PSMA−) cells [11] = assay: In vitro cellular uptake by CLSM, HepG2; assay type: cell-based, human; conditions: HepG2, 10 µM, 1 h and 4 h
Description: as §4, §5

Compound: CC[C@@]1(OC(=O)CCCCCCCCCCCNC(=O)[C@@H](N)CCC(=O)N[C@@H](CCC(=O)N[C@@H](CCC(=O)N[C@@H](CC(=O)O)C(=O)N[C@@H](CCC(=O)O)C(=O)O)C(=O)O)C(=O)O)C(=O)OCc2c1cc1n(c2=O)Cc2cc3ccccc3nc2-1 [CPT-HT-J-ZL12, (3S,6S,11S,16S,21S)-21-amino-6-(carboxymethyl)-35-(((S)-4-ethyl-3,14-dioxo-3,4,12,14-tetrahydro-1H-pyrano[3′,4′:6,7]indolizino[1,2-b]quinolin-4-yl)oxy)-5,8,13,18,22,35-hexaoxo-4,7,12,17,23-pentaazapentatriacontane-1,3,11,16-tetracarboxylic acid]
- cytotoxicity against LNCaP-FGC higher than against DU145 ([1]; LNCaP-FGC (PSMA+) vs DU145): 5 fold
- cytotoxicity against LNCaP-FGC higher than against Hela ([1]; LNCaP-FGC (PSMA+) vs Hela): 40 fold and ~ 40 fold
- cytotoxicity against LNCaP-FGC higher than against HepG2 ([1]; LNCaP-FGC (PSMA+) vs HepG2): 40 fold and ~ 40 fold
- cytotoxicity against LNCaP-FGC higher than against MCF-7 ([1]; LNCaP-FGC (PSMA+) vs MCF-7): 21 fold
- IC50 ([1]; MTT, 72 h, mean ± SD, n = 3, PSMA+, read-out: IC50 LNCaP-FGC): 1 ± 0.2 µM
- cellular uptake (blue CPT fluorescence intensity) (LNCaP-FGC (PSMA+) cells [2]; 1 h): stronger
- cellular uptake (blue CPT fluorescence) (LNCaP-FGC (PSMA+) cells [2]; 4 h): increased with the incubation time
- percentage of apoptotic cells (HepG2 (PSMA−) cells [3]; HepG2, 20.00 µM): 19.80%
- percentage of apoptotic cells (HepG2 (PSMA−) cells [3]; HepG2, 40.00 µM): 28.30%
- percentage of apoptotic cells (HepG2 (PSMA−) cells [3]; HepG2, 80.00 µM): 30.10%
- IC50 (MDCK cells): > 40 µM
- IC50 (LO2 cells): > 40 µM
- IC50 [4]: > 40 µM
- apoptosis ratio (early and late) (LNCaP-FGC (PSMA+) cells [5]; 0.63 µM): 29.90%
- apoptosis ratio (early and late) (LNCaP-FGC (PSMA+) cells [5]; 1.25 µM): 33.30%
- apoptosis ratio (early and late) (LNCaP-FGC (PSMA+) cells [5]; 2.50 µM): 48.90%
- percentage of cells in S phase (Dip S) (LNCaP-FGC (PSMA+) cells [6]; 1.25 µM): 70.86%
- percentage of cells in S phase (Dip S) (LNCaP-FGC (PSMA+) cells [6]; 2.50 µM): 83.66%
- effect on cell cycle (LNCaP-FGC (PSMA+) cells [6]; 0.63 to 2.50 µM): induce cell cycle arrest at the S phase
- IC50 [7]: > 40 µM
- IC50 [8]: 21.7 ± 4.96 µM
- IC50 [9]: 43 ± 3.69 µM
- IC50 [10]: 5.4 ± 1.22 µM
- cellular uptake (blue CPT fluorescence) (HepG2 (PSMA−) cells [11]): almost no blue fluorescence
